How the values were obtained:
[1] = molecular target: T1, NDUFA10 (in mouse complex I) (Mus musculus, UniProt Q99LC3); assay: cryo-EM structure, […] Å; format: binding; settings: nucleotide bound to NDUFA10, adenine stacks on Phe134
T1 construct: supernumerary subunit within native intact complex I from mouse heart mitochondria
T1 sequence (Q99LC3 36-355): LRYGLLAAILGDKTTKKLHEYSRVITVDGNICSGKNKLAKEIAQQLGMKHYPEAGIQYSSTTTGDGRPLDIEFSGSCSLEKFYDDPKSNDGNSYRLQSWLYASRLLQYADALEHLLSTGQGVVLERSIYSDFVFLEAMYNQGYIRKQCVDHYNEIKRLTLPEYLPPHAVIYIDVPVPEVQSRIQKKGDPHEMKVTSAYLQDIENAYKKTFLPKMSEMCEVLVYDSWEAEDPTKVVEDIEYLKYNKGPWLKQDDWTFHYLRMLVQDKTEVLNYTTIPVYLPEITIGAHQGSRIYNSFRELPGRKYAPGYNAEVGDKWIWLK

[2] = molecular target: T2, complex I (NADH:ubiquinone oxidoreductase), bovine (Bos taurus, UniProt P03887+P17694+P42026); assay: NADH oxidation ([…]-380 nm) in complex I-AOX proteoliposomes; format: biochemical; settings: Q10 in membrane phase (nmol per mg phospholipid), no piericidin, AOX recycling, 200 uM NADH, pH 7.5, 32 °C
T2 construct: gene NDUFS2; native intact 45-subunit complex I from heart; in proteoliposomes with Q10 and AOX, or detergent-solubilised (EPR sample); with NADH-ubiquinone oxidoreductase chain 2; NADH-ubiquinone oxidoreductase chain 3; NADH-ubiquinone oxidoreductase chain 4; NADH-ubiquinone oxidoreductase chain 4L; NADH-ubiquinone oxidoreductase chain 5; NADH-ubiquinone oxidoreductase chain 6; NADH-ubiquinone oxidoreductase 75 kDa subunit, mitochondrial; NADH dehydrogenase [ubiquinone] flavoprotein 1, mitochondrial; NADH dehydrogenase [ubiquinone] flavoprotein 2, mitochondrial; NADH dehydrogenase [ubiquinone] iron-sulfur protein 3, mitochondrial; NADH dehydrogenase [ubiquinone] iron-sulfur protein 8, mitochondrial
T2 sequence (P17694 34-463): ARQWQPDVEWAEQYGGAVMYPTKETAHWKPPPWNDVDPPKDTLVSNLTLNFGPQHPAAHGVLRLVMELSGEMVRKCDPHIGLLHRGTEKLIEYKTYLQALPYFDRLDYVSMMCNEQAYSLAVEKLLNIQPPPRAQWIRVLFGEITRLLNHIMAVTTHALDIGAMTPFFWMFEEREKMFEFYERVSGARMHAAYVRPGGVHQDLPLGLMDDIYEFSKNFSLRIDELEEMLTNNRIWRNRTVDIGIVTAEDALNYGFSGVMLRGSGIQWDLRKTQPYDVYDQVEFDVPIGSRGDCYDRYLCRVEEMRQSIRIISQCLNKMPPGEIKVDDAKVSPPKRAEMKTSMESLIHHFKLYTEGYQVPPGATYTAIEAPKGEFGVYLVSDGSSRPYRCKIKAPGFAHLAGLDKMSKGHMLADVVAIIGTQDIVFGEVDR
T2 sequence (P42026 38-216): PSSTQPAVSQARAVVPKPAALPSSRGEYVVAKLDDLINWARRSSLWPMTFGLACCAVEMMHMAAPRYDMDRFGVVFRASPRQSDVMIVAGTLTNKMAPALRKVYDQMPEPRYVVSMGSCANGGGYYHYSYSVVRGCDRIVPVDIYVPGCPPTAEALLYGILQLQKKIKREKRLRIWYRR
T2 sequence (P03887 whole entry): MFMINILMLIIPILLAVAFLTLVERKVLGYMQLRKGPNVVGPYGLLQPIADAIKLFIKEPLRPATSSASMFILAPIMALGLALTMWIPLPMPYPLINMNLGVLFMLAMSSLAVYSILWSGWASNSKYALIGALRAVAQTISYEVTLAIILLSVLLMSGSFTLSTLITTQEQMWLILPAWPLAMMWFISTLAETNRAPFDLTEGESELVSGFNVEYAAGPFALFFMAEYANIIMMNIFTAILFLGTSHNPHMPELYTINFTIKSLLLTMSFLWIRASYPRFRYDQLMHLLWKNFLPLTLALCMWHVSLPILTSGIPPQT

[3] = molecular target: T2, complex I (NADH:ubiquinone oxidoreductase), bovine; assay: global kinetic fit of NADH oxidation in proteoliposomes; format: biochemical; settings: two-site competitive model; second inhibitor binds more tightly; Q10 varied, AOX recycling, 200 uM NADH, pH 7.5, 32 °C
mouse complex I = molecular target: T3, mouse complex I (Mus musculus, UniProt P03888+Q91WD5+Q9DC70); assay: cryo-EM structure, […] Å; settings: ubiquinone-binding site, active state, cluster N2 reduced; NDUFS2 His59 and Tyr108
T3 construct: gene Ndufs2; native intact 45-subunit complex I purified from heart mitochondria in DDM; with NADH-ubiquinone oxidoreductase chain 2; NADH-ubiquinone oxidoreductase chain 3; NADH-ubiquinone oxidoreductase chain 4; NADH-ubiquinone oxidoreductase chain 4L; NADH-ubiquinone oxidoreductase chain 5; NADH-ubiquinone oxidoreductase chain 6; NADH-ubiquinone oxidoreductase 75 kDa subunit, mitochondrial; NADH dehydrogenase [ubiquinone] flavoprotein 1, mitochondrial; NADH dehydrogenase [ubiquinone] flavoprotein 2, mitochondrial; NADH dehydrogenase [ubiquinone] iron-sulfur protein 3, mitochondrial; NADH dehydrogenase [ubiquinone] iron-sulfur protein 8, mitochondrial
T3 sequence (Q91WD5 34-463): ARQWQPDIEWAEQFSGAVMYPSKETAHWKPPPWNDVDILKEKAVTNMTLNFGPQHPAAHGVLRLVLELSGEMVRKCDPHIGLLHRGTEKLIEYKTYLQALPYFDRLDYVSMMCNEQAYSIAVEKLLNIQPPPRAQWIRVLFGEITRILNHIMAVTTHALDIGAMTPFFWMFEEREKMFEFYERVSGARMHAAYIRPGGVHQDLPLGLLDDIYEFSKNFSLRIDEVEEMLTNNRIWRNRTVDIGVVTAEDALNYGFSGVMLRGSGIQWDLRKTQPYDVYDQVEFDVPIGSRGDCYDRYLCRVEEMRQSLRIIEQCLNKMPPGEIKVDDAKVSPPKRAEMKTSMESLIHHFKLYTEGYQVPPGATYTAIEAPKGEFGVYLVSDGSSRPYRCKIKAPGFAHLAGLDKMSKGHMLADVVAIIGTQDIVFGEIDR
T3 sequence (Q9DC70 36-224): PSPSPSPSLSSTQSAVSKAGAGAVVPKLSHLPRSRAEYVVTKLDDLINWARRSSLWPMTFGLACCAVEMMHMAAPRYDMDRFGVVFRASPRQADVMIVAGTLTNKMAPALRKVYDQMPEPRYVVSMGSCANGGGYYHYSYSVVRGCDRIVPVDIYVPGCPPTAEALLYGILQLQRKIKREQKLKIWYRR
T3 sequence (P03888 whole entry): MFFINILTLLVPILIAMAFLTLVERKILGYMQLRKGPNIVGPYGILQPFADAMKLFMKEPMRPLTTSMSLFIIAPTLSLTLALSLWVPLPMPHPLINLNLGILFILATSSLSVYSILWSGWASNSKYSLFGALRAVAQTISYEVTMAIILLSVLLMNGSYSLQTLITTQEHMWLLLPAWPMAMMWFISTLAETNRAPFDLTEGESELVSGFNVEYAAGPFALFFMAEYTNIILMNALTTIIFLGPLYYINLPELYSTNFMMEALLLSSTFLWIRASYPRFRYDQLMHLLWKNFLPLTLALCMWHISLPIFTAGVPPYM

## Nc1ncnc2c1ncn2[C@@H]1O[C@H](COP(=O)(O)OP(=O)(O)OP(=O)(O)O)[C@@H](O)[C@H]1O [ATP]
[1]
  cryo-EM structure, 3.0 Å: replacement of the ADP bound to NDUFA10 with ATP

## COC1=C(OC)C(=O)C(C/C=C(\C)CC/C=C(\C)CC/C=C(\C)CC/C=C(\C)CC/C=C(\C)CC/C=C(\C)CC/C=C(\C)CC/C=C(\C)CC/C=C(\C)CCC=C(C)C)=C(C)C1=O [Q10]
[2]
  KM,app: modelled by a series of Michaelis–Menten curves for their Q10 dependence

## C/C=C(\C)[C@H](O)[C@H](C)/C=C(C)/C=C/C/C(C)=C/Cc1nc(OC)c(OC)c(O)c1C [piericidin A]
[3]
  KI: the second inhibitor binds substantially more tightly than the first
Mouse complex I
  cryo-EM structure, 3.0 Å: The piericidin headgroup binds adjacent to NDUFS2 His59 and Tyr108
